Laboratory results published in patent US10047104B2, “Bicyclic heterocyclyl derivatives as IRAK4 inhibitors” (Aurigene Discovery Technologies Limited, priority 2014, dated 2018).
Structures can show the parent of a compound that is named as a salt.

Target: T1, recombinant IRAK-4 kinase (Homo sapiens, UniProt Q9NWZ3)
T1 construct: purchased Millipore, USA
T1 sequence (Q9NWZ3 1-460): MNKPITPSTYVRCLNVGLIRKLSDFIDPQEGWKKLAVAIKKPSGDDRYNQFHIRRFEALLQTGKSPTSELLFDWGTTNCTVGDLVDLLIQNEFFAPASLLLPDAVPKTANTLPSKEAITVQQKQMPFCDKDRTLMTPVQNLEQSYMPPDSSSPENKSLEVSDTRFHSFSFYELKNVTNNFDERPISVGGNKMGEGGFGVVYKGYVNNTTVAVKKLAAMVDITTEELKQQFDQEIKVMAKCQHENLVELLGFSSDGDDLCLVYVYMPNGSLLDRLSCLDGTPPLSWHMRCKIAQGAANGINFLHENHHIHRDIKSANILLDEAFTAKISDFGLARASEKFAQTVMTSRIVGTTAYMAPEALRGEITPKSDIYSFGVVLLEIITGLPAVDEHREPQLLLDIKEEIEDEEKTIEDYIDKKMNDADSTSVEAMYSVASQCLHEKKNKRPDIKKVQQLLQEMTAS
Test: IRAK-4 Biochemical Assay (TR-FRET)
Settings: 5 ng IRAK-4 kinase, 100 nM Biotin Histone H3, 20 μM ATP, 30 minutes pre-incubation, read-out: IC50 values for IRAK4 activity
How it was run: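 Recombinant IRAK-4 (5 ng) pre-incubated with compound 30 min at room temperature in Tris-HCl pH 7.5 with MgCl2/MnCl2, then 100 nM biotin-histone H3 and 20 μM ATP added for 30 min. Stopped with EDTA; phospho-Ser10 read by TR-FRET (Eu-antibody/APC-streptavidin).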

Structure (SMILES)	IC50 [nM]
Cc1cc(-c2nc(C(=O)Nc3cc4sc(N5CCCC(O)C5)nc4nc3N3CCCCC3)co2)ccn1 (stereo not shown) [Example 124, N-(2-(3-hydroxypiperidin-1-yl)-5-(piperidin-1-yl)thiazolo[4,5-b]pyridin-6-yl)-2-(2-methylpyridin-4-yl)oxazole-4-carboxamide]	< 50
Cc1cc(-c2nc(C(=O)Nc3cc4sc(N5CCCC(O)C5)nc4nc3N3CCC(O)CC3)co2)ccn1 (stereo not shown) [Example 126, N-(2-(3-hydroxypiperidin-1-yl)-5-(4-hydroxypiperidin-1-yl)thiazolo[4,5-b]pyridin-6-yl)-2-(2-methylpyridin-4-yl)oxazole-4-carboxamide]	< 50
CC(=O)Nc1cc(-c2nc(C(=O)Nc3cc4sc(N5CCOCC5)nc4nc3N3CCCC(O)C3)co2)ccn1 (stereo not shown) [Example 127, 2-(2-acetamidopyridin-4-yl)-N-(5-(3-hydroxypiperidin-1-yl)-2-morpholinothiazolo[4,5-b]pyridin-6-yl)oxazole-4-carboxamide]	< 50
Cc1cc(-c2nc(C(=O)Nc3cc4sc(N5CCCC(O)C5)nc4nc3N3CCC(N)CC3)co2)ccn1 (stereo not shown) [Example 134, N-(5-(4-aminopiperidin-1-yl)-2-(3-hydroxypiperidin-1-yl)thiazolo[4,5-b]pyridin-6-yl)-2-(2-methylpyridin-4-yl)oxazole-4-carboxamide hydrochloride]	< 50

Next, values leading:

IC50 [nM]	Structure (SMILES)
< 50	CC(=O)Nc1cc(-c2nc(C(=O)Nc3cc4sc(N5CCOCC5)nc4nc3N3CCC(O)CC3)co2)ccn1 [Example 125, 2-(2-acetamidopyridin-4-yl)-N-(5-(4-hydroxypiperidin-1-yl)-2-morpholinothiazolo[4,5-b]pyridin-6-yl)oxazole-4-carboxamide]
< 50	Nc1cc(-c2nc(C(=O)Nc3cc4sc(N5CCOCC5)nc4nc3N3CCCC(O)C3)co2)ccn1 (stereo not shown) [Example 128, 2-(2-aminopyridin-4-yl)-N-(5-(3-hydroxypiperidin-1-yl)-2-morpholinothiazolo[4,5-b]pyridin-6-yl)oxazole-4-carboxamide hydrochloride]
< 50	Nc1cc(-c2ccc(C(=O)Nc3cc4sc(N5CCOCC5)nc4nc3N3CCC(O)CC3)o2)ccn1 [Example 129, 5-(2-aminopyridin-4-yl)-N-(5-(4-hydroxypiperidin-1-yl)-2-morpholinothiazolo[4,5-b]pyridin-6-yl)furan-2-carboxamide hydrochloride]
< 50	Nc1cc(-c2nc(C(=O)Nc3cc4sc(N5CCOCC5)nc4nc3N3CCC(O)CC3)co2)ccn1 [Example 130, 2-(2-aminopyridin-4-yl)-N-(5-(4-hydroxypiperidin-1-yl)-2-morpholinothiazolo[4,5-b]pyridin-6-yl)oxazole-4-carboxamide hydrochloride]
< 50	Nc1cc(-c2nc(C(=O)Nc3cc4sc(N5CCOCC5)nc4nc3N3CCC(F)CC3)co2)ccn1 [Example 131, 2-(2-aminopyridin-4-yl)-N-(5-(4-fluoropiperidin-1-yl)-2-morpholinothiazolo[4,5-b]pyridin-6-yl)oxazole-4-carboxamide hydrochloride]
< 50	Cc1cc(-c2nc(C(=O)Nc3cc4sc(N5CCCC(O)C5)nc4nc3N3CCC(F)CC3)co2)ccn1 (stereo not shown) [Example 133, N-(5-(4-fluoropiperidin-1-yl)-2-(3-hydroxypiperidin-1-yl)thiazolo[4,5-b]pyridin-6-yl)-2-(2-methylpyridin-4-yl)oxazole-4-carboxamide]
